# Measured values taken from US12552737B2, “Salts of (2R, 6R)-hydroxynorketamine, their crystal forms, and methods of making the same” (THE UNITED STATES OF AMERICA, AS REPRESENTED BY THE …, priority 2019, dated 2026).
# Assays:
# [1] = Dynamic vapor sorption (DVS) sorption-desorption; assay type: physicochemical; conditions: for hygroscopicity: DVS, water, 25° C., 0% RH to 95% RH
# Method: Dynamic Vapor Sorption (DVS)
# Typically, 20-50 mg of the test substances were mounted in a gauze basket and transferred to the sample port. Excess static electricity was removed throughout sample handling and sample mounting using a 210Po static eliminator. Instrument performance checks were completed using traceable samples of sodium chloride and lithium chloride.
# [2] = based on X-ray powder diffraction data
# Method: X-Ray Powder Diffraction (XRPD)
# X-ray powder diffractograms were acquired using a Bruker D5000 diffractometer in Bragg-Brentano configuration. Extended acquisition parameters were employed for each batch of the drug substance, as detailed below. • Acquisition parameters: • Source: CuKα • Wavelength: 1.5406 Å • Scan range: 2-40° (2θ) • Step size: 0.01° (2θ) • Time per step: 4.0 s • Divergence slit width: 2 mm • Antiscatter slit width: 2 mm • Detector slit width: 0.2 mm • Sample rotation: Engaged • Tube accelerating potential: 40 kV • Tube accelerating current: 30 mA • Temperature: Ambient (nominally 18-22° C.)
# Approximately 2 mg of each sample was mounted on a silicon base for the analyses.
# All the data were smoothed by use of Fourier algorithms and the background was subtracted from each diffractogram. Instrument performance checks were completed prior to measurements using a NIST traceable standard of corundum and also using a standard of Arkansas stone quartz.
# Dynamic vapor sorption-desorption experiments were carried out using a DVS Resolution instrument supplied by Surface Measurement Systems. […]
SMILES,hygroscopicity [1],"hygroscopicity ([1]; listed as (2R,6R)-hydroxynorketamine salicylate)",water acquired in DVS isotherm ([1]; over the entire range of relative humidities (0% RH to 95% RH)),change of physical form on exposure to elevated relative humidities [2],"hygroscopicity ([1]; listed as (2R,6R)-hydroxynorketamine malonate)"
"N[C@@]1(c2ccccc2Cl)CCC[C@@H](O)C1=O.O=C(O)c1ccccc1O [RR-HNK salicylate, 2R,6R-hydroxynorketamine (RR-HNK) Salicylate]",non-hygroscopic,very low hygroscopicity,acquires very little water,does not change the physical form,
"NC1(c2ccccc2Cl)CCCC(O)C1=O.O=C(O)CC(=O)O (stereo not drawn) [RR-HNK malonate, 2R,6R-hydroxynorketamine (RR-HNK) Malonate]",non-hygroscopic,,,,very low hygroscopicity
